pIC50: −log10 of the molar value.
Target: T1, Phosphatidylinositol 4,5-bisphosphate 3-kinase catalytic subunit delta isoform (Homo sapiens, UniProt O00329)
T1 sequence (O00329 whole entry): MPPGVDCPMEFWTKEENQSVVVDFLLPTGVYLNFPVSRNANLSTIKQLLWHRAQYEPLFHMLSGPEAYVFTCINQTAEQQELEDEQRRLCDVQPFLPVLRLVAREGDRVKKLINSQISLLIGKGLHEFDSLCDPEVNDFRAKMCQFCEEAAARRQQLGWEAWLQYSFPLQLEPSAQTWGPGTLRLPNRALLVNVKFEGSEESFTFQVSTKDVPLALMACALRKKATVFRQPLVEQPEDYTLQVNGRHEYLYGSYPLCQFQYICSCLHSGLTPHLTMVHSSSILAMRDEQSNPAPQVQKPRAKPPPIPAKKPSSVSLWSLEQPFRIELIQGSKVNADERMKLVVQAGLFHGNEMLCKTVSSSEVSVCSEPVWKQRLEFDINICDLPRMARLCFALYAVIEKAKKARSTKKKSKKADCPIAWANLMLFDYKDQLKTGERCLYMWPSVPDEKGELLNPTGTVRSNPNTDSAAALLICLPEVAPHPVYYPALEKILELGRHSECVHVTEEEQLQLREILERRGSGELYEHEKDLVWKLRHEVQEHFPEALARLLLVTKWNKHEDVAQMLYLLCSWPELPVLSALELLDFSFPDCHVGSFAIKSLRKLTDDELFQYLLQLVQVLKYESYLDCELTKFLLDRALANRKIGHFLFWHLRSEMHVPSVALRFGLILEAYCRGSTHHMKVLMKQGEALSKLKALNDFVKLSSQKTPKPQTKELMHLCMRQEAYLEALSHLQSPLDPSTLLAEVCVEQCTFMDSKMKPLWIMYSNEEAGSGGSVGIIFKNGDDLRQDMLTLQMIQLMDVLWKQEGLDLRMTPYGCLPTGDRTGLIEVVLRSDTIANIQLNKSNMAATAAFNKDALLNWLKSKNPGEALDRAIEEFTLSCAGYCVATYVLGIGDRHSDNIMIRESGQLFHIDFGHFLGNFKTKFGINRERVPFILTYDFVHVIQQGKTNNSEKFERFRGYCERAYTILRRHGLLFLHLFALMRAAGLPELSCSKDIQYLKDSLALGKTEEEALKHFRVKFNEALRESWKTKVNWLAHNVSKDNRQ
Assay: Scintillation Proximity Assay
Method: The kinase reaction was conducted in polystyrene 384-well matrix white plate from Thermo Fisher Scientific in a final volume of 25 uL. Inhibitors were first diluted serially in DMSO and added to the plate wells before the addition of other reaction components. The final concentration of DMSO in the assay was 0.5%. The PI3K assays were carried out at room temperature in 20 mM MOPS, pH 6.7, 10 mM MgCl2, 5 mM DTT and CHAPS 0.03%. Reactions were initiated by the addition of ATP, the final reaction mixture consisted of 20 uM PIP2, 20 uM ATP, 0.2 uCi [γ-33P] ATP, 4 nM PI3K . […] 25 mM EDTA, 400 uM ATP. The final concentration of SPA beads was 1.0 mg/mL. After the plate sealing, plates were shaken overnight at room temperature and centrifuged at 1800 rpm for 10 minutes, the radioactivity of the product was determined by scintillation counting on Topcount (PerkinElmer).

pIC50 | Compound
> 8.00 | COc1c(C(C)n2nc(C)c3c(N)ncnc32)cc(Cl)c(C)c1-c1ccc(C(=O)N(C)CCO)nc1 (configuration not stated) [US9932341, Example 24]
> 8.00 | COc1c(C(C)n2nc(C)c3c(N)ncnc32)cc(Cl)c(C)c1-c1cncnc1 (configuration not stated) [US9932341, Example 168]

— BindingDB's records for patent US9932341 (Incyte, 2018)
